Test results: the kinase profiling compilation of Christmann-Franck et al. (2016)

Columns and labels:
Assay in all cases: KINOMEscan competition binding
Details in all cases: compound 10.0 µM
ANKK1 (human) = ANKK1 (human) (UniProt Q8NFD2)
AURKC (human) = AURKC (human) (UniProt Q9UQB9)
BMPR2 (human) = BMPR2 (human) (UniProt Q13873)
BRSK2 (human) = BRSK2 (human) (UniProt Q8IWQ3)
CDK4 CCND3 (human) = CDK4 CCND3 (human) (UniProt P11802+P30281)
CDKL5 (human) = CDKL5 (human) (UniProt O76039)
CSNK1G1 (human) = CSNK1G1 (human) (UniProt Q9HCP0)
CSNK2A2 (human) = CSNK2A2 (human) (UniProt P19784)
DAPK1 (human) = DAPK1 (human) (UniProt P53355)
DDR2 (human) = DDR2 (human) (UniProt Q16832)
DYRK2 (human) = DYRK2 (human) (UniProt Q92630)
EPHA7 (human) = EPHA7 (human) (UniProt Q15375)
GSK3B (human) = GSK3B (human) (UniProt P49841)
HIPK1 (human) = HIPK1 (human) (UniProt Q86Z02)
HUNK (human) = HUNK (human) (UniProt P57058)
[1] = biological target: JAK3 JH1 catalytic (human) (UniProt P52333)
KDR (human) = KDR (human) (UniProt P35968)
MAP3K5 (human) = MAP3K5 (human) (UniProt Q99683)
MAP4K4 (human) = MAP4K4 (human) (UniProt O95819)
MAPK3 (human) = MAPK3 (human) (UniProt P27361)
MAPK4 (human) = MAPK4 (human) (UniProt P31152)
MINK1 (human) = MINK1 (human) (UniProt Q8N4C8)
MUSK (human) = MUSK (human) (UniProt O15146)
MYLK3 (human) = MYLK3 (human) (UniProt Q32MK0)
MYO3A (human) = MYO3A (human) (UniProt Q8NEV4)
NEK4 (human) = NEK4 (human) (UniProt P51957)
PRKD2 (human) = PRKD2 (human) (UniProt Q9BZL6)
PTK2 (human) = PTK2 (human) (UniProt Q05397)
RPS6KA6 KD1 (human) = RPS6KA6 KD1 (human) (UniProt Q9UK32)
SGK110 (human) = SGK110 (human) (UniProt P0C264)
SLK (human) = SLK (human) (UniProt Q9H2G2)
STK10 (human) = STK10 (human) (UniProt O94804)
STK32A (human) = STK32A (human) (UniProt Q8WU08)
STK38 (human) = STK38 (human) (UniProt Q15208)
STK4 (human) = STK4 (human) (UniProt Q13043)
TEK (human) = TEK (human) (UniProt Q02763)
TTK (human) = TTK (human) (UniProt P33981)
ULK1 (human) = ULK1 (human) (UniProt O75385)
ULK3 (human) = ULK3 (human) (UniProt Q6PHR2)
EGFR (human) = EGFR (human) (UniProt P00533)

HIPK1 (human), sequence (Q86Z02 whole entry, looked up): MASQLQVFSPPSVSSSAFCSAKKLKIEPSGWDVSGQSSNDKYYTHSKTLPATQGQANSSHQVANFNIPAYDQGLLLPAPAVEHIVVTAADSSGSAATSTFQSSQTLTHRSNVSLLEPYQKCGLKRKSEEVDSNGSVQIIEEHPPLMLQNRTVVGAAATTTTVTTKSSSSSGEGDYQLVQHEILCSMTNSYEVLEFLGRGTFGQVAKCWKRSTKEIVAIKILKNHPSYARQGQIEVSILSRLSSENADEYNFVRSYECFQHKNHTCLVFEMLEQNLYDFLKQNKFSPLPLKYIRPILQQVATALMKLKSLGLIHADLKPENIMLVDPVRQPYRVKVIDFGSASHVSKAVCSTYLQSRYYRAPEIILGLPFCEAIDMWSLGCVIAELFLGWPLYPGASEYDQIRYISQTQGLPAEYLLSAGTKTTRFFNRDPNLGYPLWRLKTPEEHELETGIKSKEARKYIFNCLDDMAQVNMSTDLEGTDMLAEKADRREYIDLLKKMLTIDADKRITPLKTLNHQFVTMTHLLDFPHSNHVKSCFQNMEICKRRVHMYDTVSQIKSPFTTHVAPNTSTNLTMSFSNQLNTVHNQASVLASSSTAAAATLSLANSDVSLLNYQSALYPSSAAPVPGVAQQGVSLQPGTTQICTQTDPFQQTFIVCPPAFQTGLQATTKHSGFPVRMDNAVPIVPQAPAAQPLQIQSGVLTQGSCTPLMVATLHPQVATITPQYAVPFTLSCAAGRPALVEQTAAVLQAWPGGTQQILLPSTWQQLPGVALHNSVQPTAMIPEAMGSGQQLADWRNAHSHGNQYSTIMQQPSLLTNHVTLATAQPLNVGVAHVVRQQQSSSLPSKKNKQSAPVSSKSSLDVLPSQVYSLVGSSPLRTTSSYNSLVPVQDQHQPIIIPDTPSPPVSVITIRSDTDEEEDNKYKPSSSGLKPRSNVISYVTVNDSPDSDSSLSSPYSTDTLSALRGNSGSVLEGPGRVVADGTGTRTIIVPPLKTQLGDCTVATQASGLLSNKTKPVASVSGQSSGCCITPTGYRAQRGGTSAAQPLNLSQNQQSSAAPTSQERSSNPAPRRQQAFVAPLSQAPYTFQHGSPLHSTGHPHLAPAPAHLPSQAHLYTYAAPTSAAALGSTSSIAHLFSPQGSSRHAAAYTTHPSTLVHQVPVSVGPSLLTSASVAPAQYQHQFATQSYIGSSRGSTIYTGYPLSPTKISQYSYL
CSNK2A2 (human), sequence (P19784 whole entry, looked up): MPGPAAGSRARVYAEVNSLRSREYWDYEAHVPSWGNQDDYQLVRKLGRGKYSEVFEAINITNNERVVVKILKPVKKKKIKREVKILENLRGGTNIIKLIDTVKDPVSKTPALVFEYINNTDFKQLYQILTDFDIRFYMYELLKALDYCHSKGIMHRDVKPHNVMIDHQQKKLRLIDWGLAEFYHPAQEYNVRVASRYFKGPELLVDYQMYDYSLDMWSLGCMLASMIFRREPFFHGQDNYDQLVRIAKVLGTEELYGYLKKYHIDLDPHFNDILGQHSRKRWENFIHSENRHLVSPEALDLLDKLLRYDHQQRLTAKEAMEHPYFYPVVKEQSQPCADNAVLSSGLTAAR
MAPK3 (human), sequence (P27361 whole entry, looked up): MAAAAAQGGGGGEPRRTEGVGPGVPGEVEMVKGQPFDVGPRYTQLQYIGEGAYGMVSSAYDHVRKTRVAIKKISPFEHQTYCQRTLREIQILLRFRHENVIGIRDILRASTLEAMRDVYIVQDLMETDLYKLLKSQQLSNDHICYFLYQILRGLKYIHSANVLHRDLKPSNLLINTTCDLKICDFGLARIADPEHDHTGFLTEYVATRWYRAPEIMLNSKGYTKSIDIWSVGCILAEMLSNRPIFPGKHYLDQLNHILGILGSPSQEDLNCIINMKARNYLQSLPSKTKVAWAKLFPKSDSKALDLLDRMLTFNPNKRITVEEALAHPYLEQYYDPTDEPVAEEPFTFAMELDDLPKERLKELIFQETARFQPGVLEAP
DAPK1 (human), sequence (P53355 whole entry, looked up): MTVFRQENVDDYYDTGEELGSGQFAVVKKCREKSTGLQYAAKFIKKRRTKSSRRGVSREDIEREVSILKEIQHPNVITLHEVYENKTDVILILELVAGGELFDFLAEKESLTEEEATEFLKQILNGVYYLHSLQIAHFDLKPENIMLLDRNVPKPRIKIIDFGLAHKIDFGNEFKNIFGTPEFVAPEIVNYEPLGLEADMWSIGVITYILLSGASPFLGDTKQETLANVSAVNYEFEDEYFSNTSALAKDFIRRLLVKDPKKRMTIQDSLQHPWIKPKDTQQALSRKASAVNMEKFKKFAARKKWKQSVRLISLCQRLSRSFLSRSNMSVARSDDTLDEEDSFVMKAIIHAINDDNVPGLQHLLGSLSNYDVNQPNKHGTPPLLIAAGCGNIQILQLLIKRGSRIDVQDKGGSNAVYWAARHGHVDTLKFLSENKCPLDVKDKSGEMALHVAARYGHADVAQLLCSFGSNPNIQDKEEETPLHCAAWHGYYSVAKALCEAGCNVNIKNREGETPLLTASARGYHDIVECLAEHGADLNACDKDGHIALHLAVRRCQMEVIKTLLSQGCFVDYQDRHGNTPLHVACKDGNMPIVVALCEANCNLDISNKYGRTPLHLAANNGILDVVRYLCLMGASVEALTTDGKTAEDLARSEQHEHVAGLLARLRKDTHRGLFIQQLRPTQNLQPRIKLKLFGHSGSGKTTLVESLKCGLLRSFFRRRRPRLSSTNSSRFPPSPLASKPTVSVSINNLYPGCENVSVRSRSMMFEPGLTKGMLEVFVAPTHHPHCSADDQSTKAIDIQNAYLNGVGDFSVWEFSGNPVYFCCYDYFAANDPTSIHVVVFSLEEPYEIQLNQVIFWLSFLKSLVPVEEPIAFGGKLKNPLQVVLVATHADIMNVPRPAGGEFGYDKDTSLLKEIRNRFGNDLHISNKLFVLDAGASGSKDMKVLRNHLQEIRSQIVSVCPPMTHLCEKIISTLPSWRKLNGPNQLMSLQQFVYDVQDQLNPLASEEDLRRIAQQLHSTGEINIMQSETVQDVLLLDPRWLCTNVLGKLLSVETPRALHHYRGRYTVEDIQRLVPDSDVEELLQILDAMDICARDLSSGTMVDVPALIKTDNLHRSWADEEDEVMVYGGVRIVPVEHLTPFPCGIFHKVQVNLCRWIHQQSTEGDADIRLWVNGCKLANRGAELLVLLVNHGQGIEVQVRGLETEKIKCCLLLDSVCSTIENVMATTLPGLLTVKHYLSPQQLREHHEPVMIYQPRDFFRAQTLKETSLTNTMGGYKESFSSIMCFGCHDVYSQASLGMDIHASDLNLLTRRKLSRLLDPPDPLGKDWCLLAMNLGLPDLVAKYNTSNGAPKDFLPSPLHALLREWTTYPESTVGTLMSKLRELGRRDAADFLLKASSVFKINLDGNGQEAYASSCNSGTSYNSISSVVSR
PRKD2 (human), sequence (Q9BZL6 whole entry, looked up): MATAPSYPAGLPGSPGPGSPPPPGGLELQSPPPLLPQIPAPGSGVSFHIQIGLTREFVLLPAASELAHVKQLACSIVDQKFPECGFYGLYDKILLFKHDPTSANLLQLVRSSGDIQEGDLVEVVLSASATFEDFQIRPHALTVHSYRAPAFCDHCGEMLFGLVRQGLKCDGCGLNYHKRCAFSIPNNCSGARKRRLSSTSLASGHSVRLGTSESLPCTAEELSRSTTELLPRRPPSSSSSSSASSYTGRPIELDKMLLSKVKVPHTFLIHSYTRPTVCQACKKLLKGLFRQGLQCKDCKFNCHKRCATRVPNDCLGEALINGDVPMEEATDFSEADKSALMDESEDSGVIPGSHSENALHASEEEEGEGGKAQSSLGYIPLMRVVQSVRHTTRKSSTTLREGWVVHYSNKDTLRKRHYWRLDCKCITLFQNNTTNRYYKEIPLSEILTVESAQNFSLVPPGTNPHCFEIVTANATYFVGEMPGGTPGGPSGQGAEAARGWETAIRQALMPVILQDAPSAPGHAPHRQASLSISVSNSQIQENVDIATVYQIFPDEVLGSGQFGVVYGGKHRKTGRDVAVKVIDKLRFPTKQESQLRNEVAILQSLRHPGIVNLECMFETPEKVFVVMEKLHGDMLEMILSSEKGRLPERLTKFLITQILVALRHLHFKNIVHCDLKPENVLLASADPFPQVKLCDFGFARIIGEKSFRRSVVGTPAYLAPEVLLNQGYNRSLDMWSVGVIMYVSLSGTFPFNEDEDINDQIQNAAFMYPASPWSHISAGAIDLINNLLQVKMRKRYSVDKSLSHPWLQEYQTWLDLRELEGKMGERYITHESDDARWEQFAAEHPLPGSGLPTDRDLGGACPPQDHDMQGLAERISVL
RPS6KA6 KD1 (human), sequence (Q9UK32 whole entry, looked up): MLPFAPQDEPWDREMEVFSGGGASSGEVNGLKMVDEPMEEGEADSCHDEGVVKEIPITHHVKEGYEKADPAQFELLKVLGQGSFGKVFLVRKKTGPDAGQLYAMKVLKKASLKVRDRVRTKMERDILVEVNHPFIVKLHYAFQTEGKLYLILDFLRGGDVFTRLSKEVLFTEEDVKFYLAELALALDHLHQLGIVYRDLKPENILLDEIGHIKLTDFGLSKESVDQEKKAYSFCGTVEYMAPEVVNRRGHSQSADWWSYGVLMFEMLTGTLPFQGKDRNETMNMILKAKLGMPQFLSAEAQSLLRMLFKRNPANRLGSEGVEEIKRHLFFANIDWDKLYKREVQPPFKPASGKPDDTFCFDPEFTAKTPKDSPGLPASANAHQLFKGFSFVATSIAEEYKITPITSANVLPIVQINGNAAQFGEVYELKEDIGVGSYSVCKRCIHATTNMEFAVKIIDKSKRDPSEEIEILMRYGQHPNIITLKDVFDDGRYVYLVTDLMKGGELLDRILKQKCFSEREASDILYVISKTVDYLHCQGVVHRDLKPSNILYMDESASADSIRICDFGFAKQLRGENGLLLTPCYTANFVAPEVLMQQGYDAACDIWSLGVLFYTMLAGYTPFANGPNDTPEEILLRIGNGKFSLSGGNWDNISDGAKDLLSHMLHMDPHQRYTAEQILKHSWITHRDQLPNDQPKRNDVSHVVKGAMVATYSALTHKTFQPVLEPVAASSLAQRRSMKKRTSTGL

| SMILES | kinase still bound, per cent of control (ANKK1 (human)) | kinase still bound, per cent of control (AURKC (human)) | kinase still bound, per cent of control (BMPR2 (human)) | kinase still bound, per cent of control (BRSK2 (human)) | kinase still bound, per cent of control (CDK4 CCND3 (human)) | kinase still bound, per cent of control (CDKL5 (human)) | kinase still bound, per cent of control (CSNK1G1 (human)) | kinase still bound, per cent of control (CSNK2A2 (human)) | kinase still bound, per cent of control (DAPK1 (human)) | kinase still bound, per cent of control (DDR2 (human)) | kinase still bound, per cent of control (DYRK2 (human)) | kinase still bound, per cent of control (EPHA7 (human)) | kinase still bound, per cent of control (HIPK1 (human)) | kinase still bound, per cent of control (HUNK (human)) | kinase still bound, per cent of control [1] | kinase still bound, per cent of control (KDR (human)) | kinase still bound, per cent of control (MAP3K5 (human)) | kinase still bound, per cent of control (MAPK3 (human)) | kinase still bound, per cent of control (MAPK4 (human)) | kinase still bound, per cent of control (MINK1 (human)) | other results |
| --- | --- | --- | --- | --- | --- | --- | --- | --- | --- | --- | --- | --- | --- | --- | --- | --- | --- | --- | --- | --- | --- |
| COc1cc2ncn(-c3cc(OCc4ccccc4C(F)(F)F)c(C(N)=O)s3)c2cc1OC | 80% | 27% | 69% | 31% | 100% | 73% | 86% | 17% | 8.6% | 81% | 37% | 79% | 84% | 82% | 40% | 76% | 87% | 100% | 100% | 63% | kinase still bound, per cent of control (GSK3B (human)): 100%; kinase still bound, per cent of control (MAP4K4 (human)): 53%; kinase still bound, per cent of control (MUSK (human)): 100%; kinase still bound, per cent of control (MYLK3 (human)): 100%; kinase still bound, per cent of control (MYO3A (human)): 81%; kinase still bound, per cent of control (NEK4 (human)): 52%; kinase still bound, per cent of control (PRKD2 (human)): 100%; kinase still bound, per cent of control (PTK2 (human)): 83%; kinase still bound, per cent of control (RPS6KA6 KD1 (human)): 18%; kinase still bound, per cent of control (SGK110 (human)): 100%; kinase still bound, per cent of control (SLK (human)): 0.25%; kinase still bound, per cent of control (STK10 (human)): 0%; kinase still bound, per cent of control (STK32A (human)): 82%; kinase still bound, per cent of control (STK38 (human)): 94%; kinase still bound, per cent of control (STK4 (human)): 56%; kinase still bound, per cent of control (TEK (human)): 57%; kinase still bound, per cent of control (TTK (human)): 87%; kinase still bound, per cent of control (ULK1 (human)): 92%; kinase still bound, per cent of control (ULK3 (human)): 77% |
| C[C@@H](Oc1cc(-c2cnn(C3CCNCC3)c2)cnc1N)c1c(Cl)ccc(F)c1Cl | 4.2% | 3.4% | 28% | 65% | 39% | 25% | 100% | 55% | 74% | 0% | 9.6% | 0.3% | 78% | 74% | 0.65% | 78% | 100% | 100% | 84% | 18% | kinase still bound, per cent of control (GSK3B (human)): 100%; kinase still bound, per cent of control (MUSK (human)): 0.3%; kinase still bound, per cent of control (MYLK3 (human)): 100%; kinase still bound, per cent of control (MYO3A (human)): 66%; kinase still bound, per cent of control (NEK4 (human)): 25%; kinase still bound, per cent of control (PRKD2 (human)): 3.3%; kinase still bound, per cent of control (PTK2 (human)): 0%; kinase still bound, per cent of control (RPS6KA6 KD1 (human)): 46%; kinase still bound, per cent of control (SGK110 (human)): 3.4%; kinase still bound, per cent of control (SLK (human)): 0.1%; kinase still bound, per cent of control (STK10 (human)): 0%; kinase still bound, per cent of control (STK32A (human)): 86%; kinase still bound, per cent of control (STK38 (human)): 68%; kinase still bound, per cent of control (STK4 (human)): 3.9%; kinase still bound, per cent of control (TEK (human)): 1%; kinase still bound, per cent of control (TTK (human)): 50%; kinase still bound, per cent of control (ULK1 (human)): 1%; kinase still bound, per cent of control (ULK3 (human)): 8.8% |
| N#CCNC(=O)c1ccc(-c2ccnc(Nc3ccc(N4CCOCC4)cc3)n2)cc1 | 100% | 18% | 100% | 100% | 13% | 65% | 100% | 6.2% | 7% | 100% | 76% | 96% | 8.9% | 100% | 0.3% | 99% | 100% | 100% | 93% | 82% | kinase still bound, per cent of control (EGFR (human)): 100%; kinase still bound, per cent of control (MAP4K4 (human)): 85%; kinase still bound, per cent of control (MUSK (human)): 100%; kinase still bound, per cent of control (MYLK3 (human)): 68%; kinase still bound, per cent of control (MYO3A (human)): 100%; kinase still bound, per cent of control (NEK4 (human)): 100%; kinase still bound, per cent of control (PRKD2 (human)): 43%; kinase still bound, per cent of control (PTK2 (human)): 85%; kinase still bound, per cent of control (RPS6KA6 KD1 (human)): 78%; kinase still bound, per cent of control (SGK110 (human)): 83%; kinase still bound, per cent of control (SLK (human)): 100%; kinase still bound, per cent of control (STK10 (human)): 100%; kinase still bound, per cent of control (STK32A (human)): 100%; kinase still bound, per cent of control (STK38 (human)): 59%; kinase still bound, per cent of control (STK4 (human)): 100%; kinase still bound, per cent of control (TEK (human)): 100%; kinase still bound, per cent of control (TTK (human)): 22%; kinase still bound, per cent of control (ULK1 (human)): 40%; kinase still bound, per cent of control (ULK3 (human)): 0.25% |
| COCC(=O)NC/C=C/c1ccc2ncnc(Nc3ccc(Oc4ccc(C)nc4)c(C)c3)c2c1 | 60% | 67% | 73% | 100% | 100% | 100% | 100% | 100% | 76% | 100% | 100% | 100% | 88% | 70% | 100% | 100% | 90% | 95% | 100% | 77% | kinase still bound, per cent of control (GSK3B (human)): 68%; kinase still bound, per cent of control (MAP4K4 (human)): 97%; kinase still bound, per cent of control (MUSK (human)): 100%; kinase still bound, per cent of control (MYLK3 (human)): 100%; kinase still bound, per cent of control (MYO3A (human)): 75%; kinase still bound, per cent of control (NEK4 (human)): 100%; kinase still bound, per cent of control (PRKD2 (human)): 97%; kinase still bound, per cent of control (RPS6KA6 KD1 (human)): 96%; kinase still bound, per cent of control (SGK110 (human)): 100%; kinase still bound, per cent of control (SLK (human)): 60%; kinase still bound, per cent of control (STK10 (human)): 4.2%; kinase still bound, per cent of control (STK32A (human)): 100%; kinase still bound, per cent of control (STK38 (human)): 73%; kinase still bound, per cent of control (STK4 (human)): 87%; kinase still bound, per cent of control (TEK (human)): 100%; kinase still bound, per cent of control (TTK (human)): 80%; kinase still bound, per cent of control (ULK1 (human)): 47%; kinase still bound, per cent of control (ULK3 (human)): 68% |
